Like-named read-outs stand apart in the source and are kept apart here.
Legend:
[1] = target: T1, AHR (UniProt P35869); test: DRE-Luciferase Reporter Assay (Alternate Method) (Example 1B); format: cell-based, murine or human; conditions: cell line and AHR activating ligand not specified
T1 construct: IC50
T1 sequence (P35869 1-848): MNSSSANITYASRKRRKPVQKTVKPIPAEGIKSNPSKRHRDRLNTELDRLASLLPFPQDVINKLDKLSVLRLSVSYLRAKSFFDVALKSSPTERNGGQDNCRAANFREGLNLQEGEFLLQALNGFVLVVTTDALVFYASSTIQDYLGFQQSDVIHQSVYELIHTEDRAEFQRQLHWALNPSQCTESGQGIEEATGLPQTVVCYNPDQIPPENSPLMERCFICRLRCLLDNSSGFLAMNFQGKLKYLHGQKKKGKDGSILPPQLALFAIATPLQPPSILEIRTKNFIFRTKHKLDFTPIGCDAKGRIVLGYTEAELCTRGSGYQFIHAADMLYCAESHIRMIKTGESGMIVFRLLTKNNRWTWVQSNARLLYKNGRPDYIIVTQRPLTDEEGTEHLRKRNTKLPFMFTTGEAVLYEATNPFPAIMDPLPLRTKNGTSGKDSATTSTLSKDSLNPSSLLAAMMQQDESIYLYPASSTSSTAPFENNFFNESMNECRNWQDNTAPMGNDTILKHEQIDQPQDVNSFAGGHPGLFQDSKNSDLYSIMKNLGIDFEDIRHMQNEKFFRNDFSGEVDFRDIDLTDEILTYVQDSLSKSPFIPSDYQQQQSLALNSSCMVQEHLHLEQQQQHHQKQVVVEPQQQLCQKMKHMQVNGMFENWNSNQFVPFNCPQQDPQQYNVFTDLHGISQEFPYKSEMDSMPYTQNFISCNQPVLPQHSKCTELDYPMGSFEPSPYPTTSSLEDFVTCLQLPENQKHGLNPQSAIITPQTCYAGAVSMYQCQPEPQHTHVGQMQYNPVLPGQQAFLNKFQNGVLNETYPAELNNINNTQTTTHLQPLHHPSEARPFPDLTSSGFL

[2] = target: T1, AHR; test: DRE-Luciferase Reporter Assay (Example 1A); format: cell-based, murine or human; conditions: cell line and AHR activating ligand not specified
Protocol: AHR binds to Dioxin Responsive Elements (DRE) upstream of genes that it activates. One measure of AHR activity is activation of a reporter gene, such as luciferase, downstream of one or multiple DRE elements. Luciferase activity will reflect activation and inhibition of AHR in the cells expressing his reporter.
Murine Hepa1-6 or Hepa-1c1c7 or other murine cell line with a DRE-luciferase reporter either stably or transiently transfected were plated in media in plates (96-well, 384-well or other plates) and incubated overnight at 37° C. in a CO2 incubator. Likewise, human HepG2 or other human cell line with a DRE-luciferase reporter either stably or transiently transfected were plated in media in plates (96-well, 384-well or other plates) and incubated overnight at 37° C. in a CO2 incubator.
The next day, an AHR activating ligand, such as TCDD, kynurenine, ITE (2-(1H-indole-3-ylcarbonyl)-4-thiazolecarboxylic methyl ester), VAF347, BNF (beta-naphthoflavone), FICZ (6-formylindolo(3,2-b) carbazole or other AHR ligands, was added with or without AHR antagonist.
Cells were incubated for 4, 15 or 24 hours or another time point and then lysed for determination of luciferase activity as a read-out of the AHR activation or inhibition. Luciferase was measured with a commercial kit such as the Promega Luciferase kit or any kit or reagents that provide the luciferin substrate for measuring luciferase activity. The level of luciferase with only activating ligand added was the maximum signal while the luciferase with no ligand was the minimum signal. IC50 values were determined as the concentration which inhibits half of the luciferase activity.

[3] = In Vitro Mouse liver S9 Metabolic Stability Assay (Example 1D); format: in vitro ADME; conditions: CD-1 mouse liver S9, 1 μM compound, 1 mg/mL S9 protein, 37° C., NADPH regenerating system, UDPGA, PAPS
Method in brief: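 Compound at 1 μM final (0.1% DMSO) incubated at 37° C with pooled CD-1 mouse liver S9 (1 mg/mL protein) plus NADPH-regenerating system, UDPGA and PAPS. Samples at 0 and 60 min quenched in cold acetonitrile with internal standard; LC-MS/MS analyte/IS peak-area ratios give % remaining at 60 min.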

[4] = test system: Cyp1a1; test: In Vivo Mouse liver and spleen Cyp1a1 Modulation Assay (Example 1E); design: species or system C57BL/6 mice; conditions: po, dose 30 mg/kg, with AHR agonist VAG539 30 mg/kg po, qPCR
Protocol: C57BL/6 mice, female, 6-8 weeks old, weighing approximately 18-20 g were purchased from Shanghai Lingchang Biological Technology Co., Ltd or other certified vendors and used in the studies. Animal husbandry, feeding and health conditions are according to animal welfare guidelines. VAG539 (30 mg/kg, po) was used as AHRagonist, and test compounds were formulated in suitable vehicles, typically 0.5% methylcellulose).
C57BL/6 mice (n=3 per group) were treated with AHR agonist alone or with AHR agonist and test compounds. Animals were sacrificed at 4 or 10 hours after treatment upon which their livers and spleens were collected and subsequently analyzed by qPCR. Normalized fold induction of cyp1a1 was determined by comparing mCYP1A1 and mGAPDH counts (ct) according to: normalized fold=2^−ΔΔCt. The percent inhibition was calculated according to: […]

[5] = Mouse Pharmacokinetic Study (Example 1C); format: in vivo; conditions: mouse, plasma, CD-1 mice
Method in brief: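 CD-1 mice dosed intravenously or by oral gavage; plasma sampled at 0.167, 0.5, 1, 2, 4, 6, 12 and 24 h post-dose. Samples analyzed by LC/MS/MS (MRM, positive mode) against a plasma standard curve of 1.0–3000 ng/mL; PK parameters from non-compartmental analysis.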

Row | Structure (SMILES) | IC50 [1] [nM] | IC50 [2] [nM] | Mouse S9 Stability: % Remaining After 60 Minutes [3] [%] | further results
1 | CC(C)c1n[nH]c2c(NCCc3c[nH]c4ccccc34)nc(-c3cncc(F)c3)nc12 [I-1, 5-(5-Fluoro-3-pyridyl)-N-[2-(1H-indol-3-yl)ethyl]-3-isopropyl-1H-pyrazolo[4,3-d]pyrimidin-7-amine] | < 500 | 1000 to 1500 |  | 
2 | CC(C)c1csc2c(NCCc3c[nH]c4ccccc34)nc(-c3cncc(F)c3)nc12 [I-3, N-(2-(1H-indol-3-yl)ethyl)-2-(5-fluoropyridin-3-yl)-7-isopropylthieno[3,2-d]pyrimidin-4-amine] | < 500 | 1000 to 1500 |  | 
3 | CC(C)n1ccc2c(NCCc3c[nH]c4ccccc34)nc(-c3cncc(F)c3)nc21 [I-4, 2-(5-Fluoro-3-pyridyl)-N-[2-(1H-indol-3-yl)ethyl]-7-isopropyl-pyrrolo[2,3-d]pyrimidin-4-amine] | < 500 | < 500 | 0 | 
4 | Fc1cncc(-c2nc(NCCc3c[nH]c4ccccc34)c3ccsc3n2)c1 [I-5, N-(2-(1H-indol-3-yl)ethyl)-2-(5-fluoropyridin-3-yl)thieno[2,3-d]pyrimidin-4-amine] | < 500 | > 1500 |  | 
5 | CC(C)n1cnc2c(NCCc3c[nH]c4ccccc34)nc(-c3cncc(F)c3)nc21 [I-6] | < 500 | < 500 | 0 | 
6 | CC(C)n1cnc2c(NCCc3c[nH]c4cccnc34)nc(-c3cncc(F)c3)nc21 [I-7, 2-(5-Fluoro-3-pyridyl)-9-isopropyl-N-[2-(1H-pyrrolo[3,2-b]pyridin-3-yl)ethyl]purin-6-amine] | > 1500 | < 500 |  | 
7 | CC(C)n1cnc2c(NCCc3c[nH]c4cnccc34)nc(-c3cncc(F)c3)nc21 [I-9, 2-(5-Fluoro-3-pyridyl)-9-isopropyl-N-[2-(1H-pyrrolo[2,3-c]pyridin-3-yl)ethyl]purin-6-amine] | 500 to 1000 | 1000 to 1500 |  | 
8 | CC(C)c1ccc2c(NCCc3c[nH]c4ccccc34)nc(-c3cncc(F)c3)nn12 [I-19, N-(2-(1H-Indol-3-yl)ethyl)-2-(5-fluoropyridin-3-yl)-7-isopropylpyrrolo[2,1-f][1,2,4]triazin-4-amine] | < 500 | 500 to 1000 |  | 
9 | Fc1cncc(-c2cc(NCCc3c[nH]c4ccccc34)n3nccc3n2)c1 [I-103, 5-(5-Fluoro-3-pyridyl)-N-[2-(1H-indol-3-yl)ethyl]pyrazolo[1,5-a]pyrimidin-7-amine] | < 500 |  | 7 | inhibition at 30 mg/kg ([4]; 4 h, read-out: Cyp1a1 inhibition, Liver, 4 h): 94%; inhibition at 30 mg/kg ([4]; 10 h, read-out: Cyp1a1 inhibition, Liver, 10 h): 0%; bioavailability ([5]; po, 30 mg/kg): 6%; AUC(0-inf) ([5]; iv, 3 mg/kg): 1140 ng·h/mL; AUC(0-t) ([5]; iv, 3 mg/kg): 1140 ng·h/mL; clearance ([5]; iv, 3 mg/kg): 43.9 mL/min/kg; half-life ([5]; iv, 3 mg/kg): 37.2 min; Vd ([5]; iv, 3 mg/kg, read-out: Vdss): 1.4 L/kg; AUC(0-inf) ([5]; po, 30 mg/kg): 671 ng·h/mL; AUC(0-t) ([5]; po, 30 mg/kg): 649 ng·h/mL; Cmax ([5]; po, 30 mg/kg): 713 ng/mL; Tmax ([5]; po, 30 mg/kg): 12 min; half-life ([5]; po, 30 mg/kg): 129 min

From patent publication US11358969B2, “Indole AHR inhibitors and uses thereof” (Ikena Oncology, Inc., priority 2017, dated 2022)
